Test results published in the supplement of paper PMC10307832.

Tests used:
Test in all cases: relative viability (nuclei count vs DMSO), 5 days (fraction); higher = more cells survive
Metformin + OSI-027 = compound: CN(C)C(=N)NC(=N)N [Metformin] + COc1cccc2cc(-c3nc([C@H]4CC[C@H](C(=O)O)CC4)n4ncnc(N)c34)[nH]c12 [OSI-027] (partner 0.5 µM)
Summary of the method: (§1)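 One day after seeding in 1536-well plates, lung cancer cell lines were dosed by pin tool. Dosing was either single-drug or a fixed anchor-drug dose plus five library-drug doses (not always all listed) in √10 steps. After 5 days, nuclei were stained in one fix-and-stain step and counted on 4× images, and relative viability is the nuclei count of treated wells over that of vehicle wells, given as the median of duplicate plates.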

Metformin + Tozasertib = compound: CN(C)C(=N)NC(=N)N [Metformin] + Cc1cc(Nc2cc(N3CCN(C)CC3)nc(Sc3ccc(NC(=O)C4CC4)cc3)n2)n[nH]1 [Tozasertib] (partner 0.1 µM)
Summary of the method: as §1

Apatinib + Alpelisib = compound: N#CC1(c2ccc(NC(=O)c3cccnc3NCc3ccncc3)cc2)CCCC1 [Apatinib] + Cc1nc(NC(=O)N2CCC[C@H]2C(N)=O)sc1-c1ccnc(C(C)(C)C(F)(F)F)c1 [Alpelisib] (partner 2 µM)
Summary of the method: as §1

Metformin + AZD7762 = compound: CN(C)C(=N)NC(=N)N [Metformin] + NC(=O)Nc1cc(-c2cccc(F)c2)sc1C(=O)N[C@H]1CCCNC1 [AZD7762] (partner 0.2 µM)
Summary of the method: as §1

| Cell Line | relative viability (Metformin + OSI-027; first compound 10 µM) | relative viability (Metformin + OSI-027; first compound 31.62 µM) | relative viability (Metformin + OSI-027; first compound 100 µM) | relative viability (Metformin + OSI-027; first compound 316.23 µM) | relative viability (Metformin + OSI-027; first compound 1000 µM) | relative viability (Metformin + Tozasertib; first compound 10 µM) | relative viability (Metformin + Tozasertib; first compound 31.62 µM) | relative viability (Metformin + Tozasertib; first compound 100 µM) | relative viability (Metformin + Tozasertib; first compound 316.23 µM) | relative viability (Metformin + Tozasertib; first compound 1000 µM) | relative viability (Apatinib + Alpelisib; first compound 0.08 µM) | relative viability (Apatinib + Alpelisib; first compound 0.253 µM) | relative viability (Apatinib + Alpelisib; first compound 0.8 µM) | relative viability (Apatinib + Alpelisib; first compound 2.53 µM) | relative viability (Apatinib + Alpelisib; first compound 8 µM) | relative viability (Metformin + AZD7762; first compound 10 µM) | relative viability (Metformin + AZD7762; first compound 31.62 µM) | relative viability (Metformin + AZD7762; first compound 100 µM) | relative viability (Metformin + AZD7762; first compound 316.23 µM) | relative viability (Metformin + AZD7762; first compound 1000 µM) |
| --- | --- | --- | --- | --- | --- | --- | --- | --- | --- | --- | --- | --- | --- | --- | --- | --- | --- | --- | --- | --- |
| NCI-H1355 | 0.434 | 0.373 | 0.396 | 0.416 | 0.406 | 0.613 | 0.654 | 0.684 | 0.504 | 0.757 | 0.884 | 0.823 | 0.816 | 0.804 | 0.67 | 0.735 | 0.656 | 0.694 | 0.732 | 0.72 |
| NCI-H596 | 1.04 | 0.84 | 0.85 | 0.636 | 0.988 | 0.955 | 0.93 | 1.1 | 0.985 | 0.938 | 0.535 | 0.528 | 0.579 | 0.402 | 0.222 | 1.18 | 1.13 | 1.3 | 1.08 | 1.23 |
| NCI-H23 | 0.594 | 0.665 | 0.559 | 0.523 | 0.664 | 0.382 | 0.49 | 0.433 | 0.445 | 0.498 | 0.665 | 0.911 | 0.595 | 0.627 | 0.558 | 0.351 | 0.178 | 0.348 | 0.293 | 0.421 |
| HCC-15 |  | 0.812 | 0.655 | 0.586 | 0.678 |  | 0.489 | 0.395 | 0.412 | 0.521 | 0.911 | 0.904 | 0.839 | 0.891 | 0.705 |  | 1.07 | 1.11 | 1 | 1.27 |
| HCC-44 | 1.14 | 0.921 | 0.696 | 0.632 | 0.491 | 0.971 | 0.931 | 1.06 | 0.761 | 0.757 | 0.854 | 0.784 | 0.745 | 0.766 | 0.726 |  | 1 | 1.01 | 0.994 | 1.02 |
| HCC-78 | 0.466 | 0.49 | 0.362 | 0.426 | 0.422 | 0.637 | 0.571 | 0.487 | 0.4 | 0.629 | 0.414 | 0.291 | 0.364 | 0.25 | 0.382 |  | 0.99 | 0.946 | 0.846 | 0.917 |
| NCI-H3122 | 0.672 | 0.851 | 0.574 | 0.419 | 0.339 | 0.248 | 0.31 | 0.388 | 0.255 | 0.209 | 0.781 | 0.796 | 0.822 | 0.761 | 0.714 | 0.867 | 0.881 | 0.984 | 0.845 | 0.809 |
| BEN | 0.271 | 0.275 | 0.3 | 0.314 | 0.263 | 0.476 | 0.494 | 0.439 | 0.516 | 0.395 | 1.04 | 0.92 | 0.983 | 0.862 | 0.727 | 1.08 | 1.12 | 0.967 | 0.957 | 0.72 |
| LU99A | 0.302 | 0.321 | 0.3 | 0.309 | 0.289 | 0.234 | 0.246 | 0.253 | 0.235 | 0.236 | 0.565 | 0.618 | 0.457 | 0.49 | 0.461 | 0.244 | 0.249 | 0.252 | 0.223 | 0.383 |
| EKVX | 0.623 | 0.77 | 0.645 |  | 0.681 | 0.337 | 0.519 | 0.443 |  | 0.391 | 0.92 | 0.861 | 0.882 | 0.761 | 0.774 |  | 0.69 | 0.795 | 0.609 | 0.674 |
| NCI-H1437 | 1.21 | 1.23 | 1.06 | 1 | 1.04 | 0.403 | 0.44 | 0.405 | 0.411 | 0.418 | 1.03 | 1.11 | 0.911 | 0.912 | 0.644 | 1.17 | 1.1 | 1.07 | 1.09 | 0.551 |
| A-427 | 0.45 | 0.493 | 0.44 | 0.458 | 0.492 | 0.225 | 0.255 | 0.224 | 0.185 | 0.245 | 1.14 | 1.02 | 1.19 | 1.02 | 1 | 0.634 | 0.717 | 0.771 | 0.623 | 0.633 |
| NCI-H2405 | 0.567 | 0.573 | 0.608 | 0.606 | 0.559 | 0.701 | 0.732 | 0.801 | 0.763 | 0.716 | 0.855 | 1.1 | 0.91 | 0.841 | 0.81 |  | 0.866 | 0.831 | 0.722 | 0.515 |
| LK-2 | 0.194 | 0.169 | 0.199 | 0.195 | 0.209 | 0.163 | 0.189 | 0.183 | 0.174 | 0.174 | 1.33 | 1.29 | 1.04 | 1.01 | 0.919 | 0.359 | 0.454 | 0.512 | 0.361 | 0.548 |
| LOU-NH91 | 0.711 | 0.71 | 0.644 | 0.775 | 0.767 | 0.595 | 0.633 | 0.703 | 0.633 | 0.65 | 0.762 | 0.699 | 0.586 | 0.616 | 0.568 | 0.743 | 0.668 | 0.716 | 0.681 | 0.718 |
| H3255 | 0.477 | 0.654 | 0.623 | 0.457 | 0.611 | 0.603 | 0.551 | 0.615 | 0.562 | 0.592 | 0.665 | 0.674 | 0.569 | 0.614 | 0.537 | 0.898 | 0.853 | 0.814 | 0.845 | 0.738 |
| NCI-H1993 | 0.587 | 0.603 | 0.554 | 0.507 | 0.514 | 0.622 | 0.551 | 0.609 | 0.571 | 0.596 | 0.779 | 0.675 | 0.703 | 0.656 | 0.654 | 0.714 | 0.656 | 0.744 | 0.716 | 0.9 |
| LCLC-103H | 0.51 | 0.624 | 0.555 | 0.461 | 0.506 | 0.557 | 0.627 | 0.568 | 0.556 | 0.592 | 0.971 | 0.87 | 1.02 | 0.918 | 0.911 | 0.714 | 0.852 | 0.748 | 0.663 | 0.883 |
| NCI-H441 |  | 0.665 | 0.519 | 0.393 | 0.46 |  | 0.448 | 0.511 | 0.438 | 0.587 | 0.872 | 0.82 | 0.752 | 0.726 | 0.421 |  | 0.7 | 1.05 | 0.982 | 1.06 |
| ABC-1 | 0.661 | 0.529 | 0.466 | 0.266 | 0.22 | 0.223 | 0.163 | 0.172 | 0.158 | 0.189 |  | 1.2 | 1.1 | 1.01 | 1.1 | 1.24 | 1.03 | 0.986 | 1.1 | 0.909 |
| NCI-H1651 | 0.904 | 1.02 | 1.03 | 0.954 | 1.1 | 0.751 | 0.847 | 0.86 | 0.728 | 0.976 | 1.03 | 1.11 | 0.786 | 0.851 | 0.83 | 0.467 | 0.519 | 0.495 | 0.473 | 0.587 |
| NCI-H838 | 0.544 | 0.624 | 0.563 | 0.508 | 0.515 | 0.28 | 0.296 | 0.349 | 0.312 | 0.258 | 1.06 | 1.03 | 0.935 | 0.958 | 0.942 | 0.972 | 0.947 | 0.989 | 0.99 | 0.94 |
| NCI-H1755 | 0.614 | 0.729 | 0.701 | 0.636 | 0.579 | 0.446 | 0.519 | 0.474 | 0.509 | 0.497 | 0.933 | 0.946 | 0.909 | 0.899 | 0.845 | 0.361 | 0.379 | 0.408 | 0.345 | 0.408 |
| NCI-H1734 | 0.653 | 0.581 | 0.537 | 0.544 | 0.618 | 0.246 | 0.242 | 0.267 | 0.268 | 0.29 | 0.739 | 0.774 | 0.701 | 0.591 | 0.595 | 0.61 | 0.542 | 0.541 | 0.579 | 0.53 |
| HARA |  | 0.6 | 0.529 | 0.47 | 0.515 |  | 0.0842 | 0.14 | 0.101 | 0.105 | 1.07 | 0.837 | 0.852 | 0.735 | 0.795 | 0.279 | 0.47 | 0.362 | 0.293 | 0.287 |
| PC-3 [JPC-3] | 0.599 | 0.635 | 0.638 | 0.615 | 0.722 | 0.772 | 0.811 | 0.853 | 0.779 | 0.825 | 1 | 0.996 | 0.989 | 0.938 | 0.888 | 0.916 | 1.12 |  | 0.798 | 0.651 |
| NCI-H1666 | 0.97 | 0.974 | 1.05 | 0.99 | 0.939 | 0.625 | 0.649 | 0.703 | 0.711 | 0.725 | 0.943 | 1.01 | 0.936 | 0.979 | 0.943 | 0.897 | 0.993 | 0.98 | 0.869 | 1.1 |
